Measurements reported in patent US10823738B2, “Methods for breast cancer treatment” (George Mason University, priority 2015, dated 2020).

What was measured:
[1] = system: breast cancer; experiment: Bayesian analysis (MCMC simulation on I-SPY 2 data) of the predicted probability of Phase III success; format: in vivo, human
Text: Adaptive design trials are constructed on the basis of assigning patients to certain signature groups such as signature biomarker groups, the goal being to determine predictive probabilities of success in Phase III trials for various targeted therapeutics. In essence, the design trials provide data that facilitates the determination of which patient biomarker signatures respond to various regimens. A regimen would “graduate” from trial if probability of statistical significance in Phase III reaches 85% for any signature, provided that a minimum of 60 patients have been assigned to the regimen. Neratinib was one of 7 agents tested in the experimental arms of the ISPY-2 TRIAL to date.
Bayesian analysis was completed using the MCMC simulation based on I-SPY 2 data with the following model: pCR˜HR+HER2+biomarker+treatment+treatment*HR+treatment*HER2+treatment*biomarker. No multiple comparison adjustments were applied. The Bayesian analytical engine developed by Don Berry (Yee et al J Clin Oncol. 2012 Dec. 20; 30(36):4584-6), is a mathematical approach that evaluates the clinical performance of a drug (in this case, neratinib) in both the treatment arm (in this case tumor shrinkage estimates by size changes observed by MRI), coupled with complete pathological response (pCR) as measured as the final response determinant, and the response of the predicate therapy in the control arm. This evaluation determined success of a given therapy for a Phase III trial, and in this case, it was determined that phosphorylation of EGFR at Y1173 was not only statistically significant at predicting or assessing response to neratinib in all patients regardless of hormone receptor levels and HER2 levels (HER2+, HER2− and HR+ and HR−), but when patients with high levels of phosphorylated EGFR (Y1173) were added to the HR−/HER2+ subgroup, the prevalence of ‘biomarker-positive’ patients increased by 50%, while increasing the predicted probability of Phase III success to 90%. […]

[2] = system: HER2− breast cancer; experiment: I-SPY 2 TRIAL: pCR response of breast cancer patients treated with veliparib; format: in vivo, human
Text: Currently, treatment of Stage II/III breast cancer involves neoadjuvant treatment (pre-surgical) with drug regimens that may include therapies targeting specific molecular defects. Disclosed herein are novel methods for treatment of breast cancer comprising identifying biomarkers that predict response to therapeutic agents used in the pre-surgical stage of treatment of cancer. Subjects providing samples (pre-treatment biopsies) for studies described herein were characterized based on measurement of estrogen/hormone receptor (HR) and HER2 (c-erbB2), and were described by HER2−/HR−. HER2+/HR+. HER2+/HR−, HER2−/HR+ phenotypes. Response to treatment was determined by the amount of tumor shrinkage and a lack of appreciable tumor evident at surgery. […] This microarray allows for quantitative measurement of the amount of proteins and/or phosphorylated proteins in the tumor or cancerous cells from pretreatment sample, for example from biopsy specimens of women with Stage II/III breast cancer. […]
This example tested the hypothesis that the response to the PARP inhibitor, veliparib, was predicted by specific biomarkers. […] Various proteins were evaluated as biomarkers of veliparib response using reverse phase protein microarray (RPMA) data from pre-treatment laser capture microdissection (LCM) purified tumor epithelium. […]

| SMILES | Phase III success (predicted probability) ([1]; EGFR Y1173 used as a single marker, all patients) | Phase III success (predicted probability) ([1]; HER2+/HR− status as measured by immunohistochemical methods) | predicted probability of Phase III success ([1]; patients with high levels of phosphorylated EGFR (Y1173) added to the HR−/HER2+ subgroup) | clinical response ([2]; HER2−/HR− subtype) | complete pathological response (pCR) ([2]; women with both HR+ and HR− tumors) |
| --- | --- | --- | --- | --- | --- |
| CCOc1cc2ncc(C#N)c(Nc3ccc(OCc4ccccn4)c(Cl)c3)c2cc1NC(=O)/C=C/CN(C)C [neratinib] | 93% | 87% | 90% | – | – |
| C[C@]1(c2nc3c(C(N)=O)cccc3[nH]2)CCCN1 [veliparib] | – | – | – | statistically significant clinical response | pCR was observed |
